The structures appear in SMILES notation.

Data set [1] can be described thus: in vivo. Conditions: rat, po, 10 mg/kg.
The nature of data set [2]: in vivo. Conditions: rat, iv, 5 mg/kg.
The nature of data set [3]: in vivo. Conditions: rat, iv, 5 mg/kg. This is another data set of the same source.
Data set [4] can be described thus: in vivo. Conditions: rat, po, 10 mg/kg. This is another data set of the same source.
Data set [5] can be described thus: in vivo. The settings on record: rat, po, 10 mg/kg. The source holds these as a separate data set.
A short description of data set [6]: in vivo. The settings on record: rat, iv, 5 mg/kg. The source holds these as a separate data set.
The nature of data set [7]: in vivo. The settings on record: rat, po, 10 mg/kg. This is another data set of the same source.
Data set [8] is described as follows: in vivo. Conditions: rat, iv.
Data set [9] can be described thus: in vivo. The settings on record: rat, iv. The source holds these as a separate data set.
Data set [10] is described as follows: in vivo. The settings on record: rat, iv. The source holds these as a separate data set.

For `CC1(C)c2cc(C3CCN(CC4(O)CCOCC4)CC3)ccc2C(=O)c2c1[nH]c1cc(C#N)ccc21`, the Tmax in data set [1] was 3.3 h. In data set [2], the half-life was 5.41 h. In [3], this compound showed a clearance of 38 mL/min/kg. Besides, in [4], the Cmax was determined as 192 ng/mL. In addition, the bioavailability in data set [5] is 42.4%. Besides, the Vd in data set [6] worked out at 12.9 L/kg. Also, the AUC(0-inf) in data set [7] came out at 1940 ng·h/mL.
As to `CCc1cc2c(cc1-c1cnn(CC(=O)N(C)C)c1)C(C)(C)c1[nH]c3cc(C#N)ccc3c1C2=O`, the Tmax in data set [1] stood at 3.3 h. In addition, in [8], the half-life was 3.77 h. Besides, the clearance in [9] is 10.8 mL/min/kg. The same compound came in with a Vd in data set [10] of 1.17 L/kg. The peak level in [4] (Cmax) was 218 ng/mL. Moreover, the bioavailability in [5] is 7.1%. The compound further returned an AUC(0-inf) in data set [7] of 1350 ng·h/mL.
Turning to `CC1(C)c2cc(C3CCN(CC4CCOCC4)CC3)ccc2C(=O)c2c1[nH]c1cc(C#N)ccc21`, in data set [1], the Tmax came to 4.5 h. The compound also had a half-life in data set [2] of 15.8 h. Also, the clearance in data set [3] is 14.2 mL/min/kg. In data set [4], this compound had a peak concentration (Cmax) of 351 ng/mL. Moreover, the bioavailability in data set [5] was 67.1%. The compound also yielded a Vd in [6] of 17.4 L/kg. The same compound returned an AUC(0-inf) in data set [7] of 7290 ng·h/mL.

Usually Tmax stands for the time from dosing to the highest level. What is called half-life is how long it takes for the measured level to halve. The low end stands for fast loss, the high end for slow loss. A word on the clearance: it is a measure of how efficiently the substance is removed, as volume per time. Low readings indicate inefficient removal, high ones efficient removal. A word on the Cmax: it is the peak of the concentration-time curve. A word on the bioavailability: it is dose-corrected exposure relative to a reference, in per cent. A higher bioavailability goes with good availability. As usually defined, the Vd is a proportionality between amount in the body and measured concentration, not a real space. High values mean wide distribution into tissue, low ones little distribution into tissue. By AUC(0-inf) is commonly meant the area under the concentration-time curve extrapolated to infinity. Low readings indicate less exposure, high ones more exposure.

Values taken from ChEMBL document CHEMBL3734710 (Eur J Med Chem, 2015).
